In patent US20120129872A1, “FUSED HETEROARYL INHIBITORS OF PRO-MATRIX METALLOPROTEINASE ACTIVATION” (priority 2010, published 2012):

Assays:
MMP9 = molecular target: T1, MMP9 (Homo sapiens, UniProt P14780); assay: Activation of proMMP9 by human fetal lung fibroblast (HFL-1) cultures (Western blot); assay type: cell-based; settings: 3.3 μM, HFL-1, mAb-L51/82
T1 construct: host or cells: HFL-1 human fetal lung fibroblasts
Procedure: Activation of proMMP9 by human fetal lung fibroblast cultures Compound-α was assessed additionally for ability to block the maturation of proMMP9 to active MMP9 in cultures of human fetal lung fibroblasts (HFL-1, American Type Culture Collection #CCL-153). Unlike rat synoviocytes, HFL-1 cells were unable to process proMMP9 to the active form without addition of neutrophil elastase. […] Rather, the function of elastase in this assay may be to inactivate tissue inhibitors of matrix metalloproteinases (TIMPs) that repress endogenous pathways of MMP9 activation (Am J Respir Crit. Care Med; 1999; 159:1138-46).
HLF-1 were maintained in monolayer culture in DMEM with 10% FCS and were used between passage numbers 5-15. HLF-1 were embedded in collagen gels as described for rat SCW synoviocytes (vida supra). Half mL gels containing 0.4 million cells were dislodged into wells of 12 well Costar plates containing 1 mL/well of DMEM adjusted to contain 0.05% BSA and 100 ng/mL human TNFα (R&D Systems Cat #210-TA/CF). After overnight culture (37° C. and 5% CO2) wells were adjusted to contain an additional 0.5 mL of DMEM containing 0.05% BSA and with or without 13.2 μM Compound-α (final concentration was 3.3 μM Compound-α). Next, cultures were adjusted to contain 30 nM human elastase (Innovative Research). The plates were cultured an additional 72 hrs, at which time MMP9 secreted into the conditioned media was bound to gelatin-sepharose and evaluated by Western blot analysis as described for the rat synoviocyte cultures (vida supra). mAb-51/82 detected three forms of MMP9 in HFL-1 cultures.
These included a form of approximately 100 kD with mobility similar to recombinant rat proMMP9, an approximately 80 kD form with mobility similar to rat active MMP9, and an approximately 86 kD intermediate form. In the absence of Compound-α, most of the MMP9 was present as the 80 kD form. In the presence of Compound-α, the 80 kD form was a minor fraction of the total signal while nearly half of the signal were contributed each by the 100 kD and 86 kD forms. […]
A second experiment was performed to determine if the 80 kD form was mature active MMP9 and to determine the potency of Compound-α as an inhibitor of MMP9 maturation in this assay. HFL-1 cells embedded in collagen gels were cultured as described above in the presence of TNFα overnight and the cultures were then adjusted to contain 30 nM elastase and graded concentrations of Compound-α for an additional 72 hrs at which time MMP9 secreted into the conditioned media was bound to gelatin-sepharose and evaluated by Western blot analysis for active MMP9 using pAb-1246 raised against the N-terminal neoepitope of active MMP9 (Table 5). In the absence of Compound-α, pAb-1246 readily detected MMP9 with an electrophoretic mobility of approximately 80 kD. […]

[1] = molecular target: T2, MMP9 mediated gelatinase activity (Rattus norvegicus, UniProt P50282); assay: In situ zymography of gelatinase activity in livers of SCW-induced rats; assay type: in vivo; settings: for Intensity, Rat 1 / Intensity, Rat 2 / Intensity, Rat 3 / Intensity, Mean: liver
T2 construct: from tissue; host or cells: liver sections of female Lewis rats
T2 sequence (P50282 108-708): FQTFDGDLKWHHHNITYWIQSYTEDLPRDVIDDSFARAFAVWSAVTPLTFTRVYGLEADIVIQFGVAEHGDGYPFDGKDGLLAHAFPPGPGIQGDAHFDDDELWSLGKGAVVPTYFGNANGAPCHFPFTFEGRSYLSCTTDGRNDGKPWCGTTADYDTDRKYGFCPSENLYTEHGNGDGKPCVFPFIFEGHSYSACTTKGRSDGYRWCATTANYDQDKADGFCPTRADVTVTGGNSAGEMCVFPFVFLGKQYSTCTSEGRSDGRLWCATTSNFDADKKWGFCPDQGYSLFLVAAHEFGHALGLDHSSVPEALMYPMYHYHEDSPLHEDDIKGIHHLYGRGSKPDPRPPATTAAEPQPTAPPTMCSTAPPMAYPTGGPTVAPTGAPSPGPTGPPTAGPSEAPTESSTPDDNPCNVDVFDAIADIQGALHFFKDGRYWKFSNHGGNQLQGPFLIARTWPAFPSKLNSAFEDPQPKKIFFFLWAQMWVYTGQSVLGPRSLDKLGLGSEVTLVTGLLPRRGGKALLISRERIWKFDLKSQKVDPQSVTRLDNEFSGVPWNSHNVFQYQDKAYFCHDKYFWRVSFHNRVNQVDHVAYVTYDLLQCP
Excerpt: In situ zymography provides an alternative approach to assess active MMP9 in tissues (Frederiks). Tissue sections are overlain with fluorescene-conjugated gelatin wherein the conjugation is sufficiently dense to cause the fluorescene to be dye-quenched (DQ). Proteolytic degradation of the DQ-gelatin releases the fluorescene from the quenching effect giving rise to bright green fluorescence at the site of degradation. Because in situ zymography requires the use of frozen sections, calcified tissues are problematic. However, an additional feature of the SCW arthritis model is the development of hepatic granulomatous disease (J Immunol; 1986; 137:2199-2209), and MMP9 reportedly plays a role in macrophage recruitment in the granulomas response to mycobacteria (Infect Immun; 2006; 74:6135-6144). Consequently, granulomatous livers from SCW-treated rats were assessed for active MMP9 by in situ zymography.
As described above, Female Lewis (LEW/N) rats, 5-6 weeks of age (80-100 g) were injected (i.p.) with saline or SCW PG-PS. On day 28, when the granulomatous response was well established, animals were sacrificed and livers were frozen in OCT cryo-sectioning medium and […] sections were cut on a Cryome HM 500 M cryotome and mounted on glass microscope slides. Sections were air dried briefly. MMP9 was confirmed as the source of the gelatinase activity in the liver by treating liver sections with monoclonal antibodies directed against the active site of the two major gelatinases MMP9 and MMP2. Liver sections overlain with 50 μL of 100 μg/mL neutralizing mouse monoclonal antibodies directed against MMP9 (Calbiochem, clone 6-6B), or MMP2 (Millipore, clone CA-4001), or with PBS for 1 hr at room temperature. Tissues were rinsed once with PBS, blotted, and briefly air dried and then overlain with DQ-gelatin (Invitrogen) dissolved to 1 mg/mL in deionized water and then diluted 1:10 in 1% wt/vol low gelling point agarose type VII (Sigma) in PBS. The sections were covered with coverslips, incubated in the dark at room temperature for 20 min, and imaged on an Olympus IX80 inverted microscope fitted with fluorescence optics, using SlideBook™ imaging software (Intelligent Imaging Innovations, Inc., Philadelphia, Pa.; version 5.0). Fluorescence intensity was determined (Table 8). When compared to a saline-treated rat, gelatinase activity was abundantly expressed in granulomatous liver sections obtained from a rat with SCW arthritis.
Next, liver in situ zymography was used to assess the relative presence of active MMP9 in rats dosed with vehicle vs. Compound-α. Female Lewis (LEW/N) rats, 5-6 weeks of age (80-100 g) were injected (i.p.) with saline or SCW PG-PS. Commencing on day 25, randomized groups of rats (n=3 rats/group) received vehicle or 20 or 50 mg/kg Compound-α BID by oral gavage. Vehicle consisted of an aqueous mixture containing 2% (v:v) N-methylpyrrolidone, 5% (v:v) glycerine, and 20% (w:v) captisol. Treatment continued daily through the morning of day 28. Four hrs after the AM dose on day 28, rats were sacrificed and livers assessed for active MMP9 by in situ zymography (Table 9). Gelatinase activity was increased markedly in SCW-induced rats, but activity was reduced by approximately 80% in animals treated with 50 mg/kg Compound-α.

T1 sequence (P14780 94-707): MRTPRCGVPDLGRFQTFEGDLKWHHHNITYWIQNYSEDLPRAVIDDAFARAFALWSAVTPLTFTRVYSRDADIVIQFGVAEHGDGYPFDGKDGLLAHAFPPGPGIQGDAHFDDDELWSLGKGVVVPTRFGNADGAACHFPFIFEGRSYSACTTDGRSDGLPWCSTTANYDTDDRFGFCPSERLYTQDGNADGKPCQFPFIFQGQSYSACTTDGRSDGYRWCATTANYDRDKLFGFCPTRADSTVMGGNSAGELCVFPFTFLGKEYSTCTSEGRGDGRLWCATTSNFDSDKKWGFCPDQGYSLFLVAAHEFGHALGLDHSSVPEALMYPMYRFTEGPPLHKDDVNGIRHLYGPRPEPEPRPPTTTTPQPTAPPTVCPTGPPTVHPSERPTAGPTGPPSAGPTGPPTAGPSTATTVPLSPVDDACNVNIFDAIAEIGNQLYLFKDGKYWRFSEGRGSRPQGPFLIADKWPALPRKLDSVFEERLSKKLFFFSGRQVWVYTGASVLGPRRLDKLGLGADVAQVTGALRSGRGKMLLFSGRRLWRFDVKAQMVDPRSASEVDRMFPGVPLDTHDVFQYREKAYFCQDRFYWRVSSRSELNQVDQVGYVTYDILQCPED

- Percent of total signal, 80 kD (MMP9): 7%
- Percent of total signal, 86 kD (MMP9): 47%
- Percent of total signal, 100 kD (MMP9): 46%
- Signal, Total (MMP9): 91346 INT * mm^2
- Reduction of liver gelatinase activity ([1]; 50 mg/kg BID Day 25-28): approximately 80%
- Intensity, Rat 1 ([1]; 20 mg/kg BID Day 25-28): 43.0 RLU × 10^6
- Intensity, Rat 2 ([1]; 20 mg/kg BID Day 25-28): 69.0 RLU × 10^6
- Intensity, Rat 3 ([1]; 20 mg/kg BID Day 25-28): 53.7 RLU × 10^6
- Intensity, Mean ([1]; 20 mg/kg BID Day 25-28, n=3): 55.2 RLU × 10^6
- Intensity, Rat 1 ([1]; 50 mg/kg BID Day 25-28): 3.2 RLU × 10^6
- Intensity, Rat 2 ([1]; 50 mg/kg BID Day 25-28): 25.6 RLU × 10^6
- Intensity, Rat 3 ([1]; 50 mg/kg BID Day 25-28): 4.5 RLU × 10^6
- Intensity, Mean ([1]; 50 mg/kg BID Day 25-28, n=3): 11.1 RLU × 10^6
Structure (SMILES): Cc1nc(C)c(-c2csc(Nc3cc(S(N)(=O)=O)ccc3OC(C)C)n2)s1 [Compound-α, 3-(2′,4′-Dimethyl-[4,5′]bithiazolyl-2-ylamino)-4-isopropoxy-benzenesulfonamide•HBr]
